Data on three molecules can be found in patent US20210253550A1, “THERAPEUTIC COMPOUNDS AND COMPOSITIONS” (eXIthera Pharmaceuticals, Inc., priority 2018, published 2021).

Series [1] can be described thus: Dynamic Vapor Sorption (DVS) with XRPD before and after. The series is classed as physicochemical. The method, then: Samples were analyzed using an Aquadyne DVS-2 gravimetric water sorption analyzer. The relative humidity was adjusted between 2-95% and the weight of the sample was continuously monitored and recorded with respect to the relative humidity and time.
The same material was subjected under the Dynamic Vapor Sorption (DVS, FIGS. 3 and 4).
The purity of the sample was also verified by ^1H-NMR. […] The amorphous salt was also studied by DVS. During Desorption 1, (from 50 to 0% RH), a weight loss of around 3% was observed whilst, during Sorption 1 (from 0 to 95% RH), a weight gain of 10%. Desorption 2 indicates a weight loss of 3% was observed and during Sorption 2 (from 0 to 95% RH) the weight loss was continued to additional 1%. In the final stage, Desorption 3 (from 95 to 50% RH), around 1% weight loss was observed (see FIG. 17). The amorphous Compound 1.HCl was analyzed by XRPD and optical microscopy post-DVS experiment.

Series [2] can be described thus: Heating of amorphous salt at 140° C., XRPD and DSC. The series is classed as physicochemical. To be noted: amorphous salt heated to 140° C. for 30 min (Sample D9). How it is done:
FIG. 18 illustrates the post-DVS XRPD comparison with the amorphous and Pattern A (original salt). The amorphous salt was heated to 140° C. for 30 min and characterized by XRPD and DSC (Sample ID: D9). […] The DSC thermogram in FIG. 21 also confirms the conversion of amorphous to crystalline (Pattern A) after heating the amorphous sample at 140° C.

Series [3] can be described thus: Solubility of Compound 1.HCl measured gravimetrically in solvents/solvent mixtures. The series is classed as physicochemical. To be noted: thermodynamic from solid, slurried 48 h, gravimetric. How it is done: Solubility of Compound 1.HCl was measured gravimetrically in 12 different solvents and solvent mixtures at 15 and 45° C. About 90 mg of the compound was dispensed in 1 mL of the solvent/solvent mixture and slurried for 48 h. The vials were centrifuged. The supernatant was collected and left for slow evaporation under vacuum at 45° C. The solids obtained after evaporation were used to determine the solubility of Compound 1.HCl and analyzed by XRPD for any new form. Table 1 represents the solubility of Compound 1.HCl in different solvents.

The nature of series [4]: Relative stability of the forms: competitive slurries of Pattern A and amorphous form. The class given is physicochemical. To be noted: Pattern A + amorphous form in TBME, IPA and THF:H2O (95:5), RT and 45° C.
In series [5] the test system is blood coagulation components. The class given is in vivo. How it is done: The following parameters and endpoints were evaluated in this study: mortality, body weight, physical, clinical pathology parameters (hematology and coagulation), coagulation time, and bioanalytical parameters.
The vehicle and test article were administered via intravenous (IV) infusion once on Day 1 for 135 minutes (initiated 30 minutes prior to starting the Cardiopulmonary Bypass (CPB) and continuing for 105 minutes of CPB). Group 2 animals received a […] IV bolus dose immediately prior to the start of IV infusion. Group 3, 4, and 5 animals received a 10 mg/kg IV bolus dose prior to the start of the IV infusion; with the CPB machine primed with test article at 10 μg/mL.
Infusion of the Compound 1 was started 30 minutes prior to the animal being placed on the CPB pump. The CPB pump was primed with 0.9% saline.
Venous and arterial sheaths were flushed with the Compound 1 at a concentration of 10 μg/mL. An IV bolus dose of the test article was administered immediately prior to the start of the infusion. Infusion of Compound 1 was started 30 minutes prior to the animal being placed on the CPB pump. The CPB […] was primed with 10 μg/mL of the Compound 1 prior to initiation of the CPB pump.
An IV bolus dose of the Compound 1 was administered immediately prior to the start of the infusion. Infusion of Compound 1 was started 30 minutes prior to the animal being placed on the CPB pump.

Where [6] appears, read: amorphous salt (Sample C1), from 0 to 95% RH.

In the case of `C[C@@H](NC(=O)N1C(=O)[C@H](Cc2ccnc(N)c2)[C@H]1C(=O)O)C1CCCCC1.Cl` [amorphous Compound 1.HCl], the “weight loss, DVS Desorption 2” value in series [1] (amorphous salt (Sample C1)) was found to be 3%. The “solid form by XRPD post-DVS” value in series [1] (amorphous salt (Sample C1), post-DVS experiment) was “reverts back to crystalline salt (Pattern A)”. Further, in series [1] (setting [6]), the “additional weight loss, DVS Sorption 2” value stood at 1% and the “weight gain, DVS Sorption 1” value was found to be 10%. The “weight loss, DVS Desorption 1” value in series [1] (amorphous salt (Sample C1), from 50 to 0% RH) was “around 3%”. Also, the “weight loss, DVS Desorption 3” value in series [1] (amorphous salt (Sample C1), from 95 to 50% RH) is on record as “around 1%”. The “solid form by XRPD after heating” value in series [2] is on record as “transformation to Pattern A (crystalline salt)”.
For `C[C@@H](NC(=O)N1C(=O)[C@H](Cc2ccnc(N)c2)[C@H]1C(=O)O)C1CCCCC1.Cl` [Compound 1.HCl], the solubility (in general, how much of the substance goes into solution per volume) at 48 h in series [3] (aqueous with cosolvent or surfactant or cyclodextrin, MeOH:H2O (1:1), 15° C.) is greater than 100000 µg/mL; in series [3] (aqueous with cosolvent or surfactant or cyclodextrin, MeOH:H2O (1:1), 45° C.), greater than 100000 µg/mL; in series [3] (organic solvent or mixture, Acetone, 15° C.), 2200 µg/mL; in series [3] (organic solvent or mixture, Acetone, 45° C.), 4800 µg/mL; in series [3] (organic solvent or mixture, EtOAc, 15° C.), 200 µg/mL; in series [3] (organic solvent or mixture, EtOAc, 45° C.) it was 2100 µg/mL. The solubility at 48 h is greater than 100000 µg/mL in series [3] (organic solvent or mixture, EtOH:H2O (95:5), 15° C.); greater than 100000 µg/mL in series [3] (organic solvent or mixture, EtOH:H2O (95:5), 45° C.); less than 1000 µg/mL in series [3] (organic solvent or mixture, Heptane, 15° C.); 2100 µg/mL in series [3] (organic solvent or mixture, Heptane, 45° C.); 17000 µg/mL in series [3] (organic solvent or mixture, IPA, 15° C.); 43000 µg/mL in series [3] (organic solvent or mixture, IPA, 45° C.). Also, the solubility at 48 h was greater than 100000 µg/mL in series [3] (organic solvent or mixture, IPA:H2O (9:1), 15° C.); greater than 100000 µg/mL in series [3] (organic solvent or mixture, IPA:H2O (9:1), 45° C.); 700 µg/mL in series [3] (organic solvent or mixture, MeCN, 15° C.); 700 µg/mL in series [3] (organic solvent or mixture, MeCN, 45° C.); greater than 100000 µg/mL in series [3] (organic solvent or mixture, MeOH, 15° C.); greater than 100000 µg/mL in series [3] (organic solvent or mixture, MeOH, 45° C.). For the same molecule, the solubility at 48 h in series [3] (organic solvent or mixture, TBME, 15° C.) was 400 µg/mL; in series [3] (organic solvent or mixture, TBME, 45° C.), 4100 µg/mL; in series [3] (organic solvent or mixture, THF, 15° C.), 1200 µg/mL; in series [3] (organic solvent or mixture, THF, 45° C.), 6700 µg/mL; in series [3] (Water, 15° C.) it was greater than 100000 µg/mL; in series [3] (Water, 45° C.), greater than 100000 µg/mL. The “crystalline pattern by XRPD after DVS” value in series [1] (crystalline Pattern A, after DVS) was “did not change”. Besides, the “moisture uptake (DVS)” value in series [1] (crystalline Pattern A, relative humidity levels between 0-95%) was “about 4%”. Also, the “solid form by XRPD of competitive slurries after 24 h” value in series [4] is on record as “did not exhibit any change in the crystalline form (Pattern A)”. The “solid form by XRPD of competitive slurries at t=5 min” value in series [4] was “transformed to Pattern A”.
Regarding `C[C@@H](NC(=O)N1C(=O)[C@H](Cc2ccnc(N)c2)[C@H]1C(=O)O)C1CCCCC1` [Compound 1, (2S,3R)-3-[(2-aminopyridin-4-yl)methyl]-1-{[(1R)-1-cyclohexylethyl]carbamoyl}-4-oxoazetidine-2-carboxylic acid], in series [5] (dog, in vivo), the morbidity or mortality entry is reported as “not associated with any increases in morbidity or mortality” and the survival result is reported as “All animals survived to study termination”. In series [5] (hound CPB model, 105-minute CPB run), the “prevention of activation of blood coagulation in components of cardiopulmonary bypass” value was “successful in preventing the activation of blood coagulation in components of cardiopulmonary bypass”. The “pressure gradient across the membrane oxygenator” value in series [5] (hound CPB model, IV infusion at multiple doses, entire pump run) is listed as “stayed consistent through the entire run”. Also, the “selectivity of anticoagulant effects” value in series [5] (hound CPB model, coagulation parameters) is reported as “selective to inhibition of activated partial thromboplastin time (aPTT)”. In addition, in series [5] (hound, all animals, IV infusion 3 or 10 mg/kg/hr), the “aPTT during Compound 1 infusion and prior to CPB” value is listed as “moderately to markedly prolonged”. The “aPTT following cessation of infusion and CPB, at the conclusion of the study” value in series [5] (hound, all groups) is listed as “remained moderately prolonged”.
